The values that follow come from patent US20240254089A1, “MODULATORS OF MAS-RELATED G-PROTEIN RECEPTOR X4 AND RELATED PRODUCTS AND METHODS” (ESCIENT PHARMACEUTICALS, INC., priority 2020, published 2024).

Where only a bound is given, the exact number is not on record here.

The first test deals with T1, human MRGPR X4 (Homo sapiens, UniProt Q96LA9).
T1 construct: expressed in transfected cells
T1 sequence (Q96LA9 whole entry): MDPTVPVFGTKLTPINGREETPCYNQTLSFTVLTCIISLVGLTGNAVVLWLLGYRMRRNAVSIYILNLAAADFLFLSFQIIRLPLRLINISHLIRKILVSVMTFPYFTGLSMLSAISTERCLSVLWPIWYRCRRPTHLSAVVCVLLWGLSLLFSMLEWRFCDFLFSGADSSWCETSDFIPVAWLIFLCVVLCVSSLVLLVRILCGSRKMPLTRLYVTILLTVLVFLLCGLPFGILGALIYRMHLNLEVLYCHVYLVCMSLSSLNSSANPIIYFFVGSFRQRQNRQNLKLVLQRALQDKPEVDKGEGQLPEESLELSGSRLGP
The experiment in a line: MRGPR X4 antagonist activity, IP-One Gq HTRF assay in stably transfected HEK cells. It counts as cell-based.
Settings: not given
In short, it runs like this:
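Human MRGPR X4-expressing HEK cells, 20,000/well, were incubated with compound (10-point curve, 10 uM top, 1:3 dilutions) plus agonist (10 μM bilirubin, 20 μM deoxycholic acid or 100 μM conjugated bilirubin) in Tris/NaCl/LiCl buffer, pH 8, for 1 h at 37 °C, then 30 min at room temperature. IP-1 was read by HTRF, and IC50 was taken from the HTRF ratio.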
Background: Time-resolved FRET reads energy transfer from a long-lived donor to a nearby acceptor.
`O=C(O)c1nn(Cc2ccc(C(F)(F)F)cc2Cl)c2ccccc12` [Compound 317] came in with an IC50 of 501 to 1000 nM.
Molecule `O=C(O)c1nn(Cc2ccc(Cl)c(Cl)c2)c2ccccc12` [Compound 318] displayed an IC50 of 1000 to 2500 nM.
`O=C(O)c1nn(Cc2ccc(Cl)cc2)c2ccccc12` [Compound 319] came in with an IC50 of 1000 to 2500 nM.
`O=C(O)c1nn(Cc2ccc(Cl)cc2)c2ccc(Cl)cc12` [Compound 320]: the IC50 lay within 1000 to 2500 nM.
`O=C(O)c1nn(Cc2ccc(OC(F)(F)F)cc2)c2ccccc12` [Compound 321] yielded an IC50 of 1000 to 2500 nM.
Turning to `O=C(O)c1nn(Cc2ccc(Cl)cc2)c2ccc(F)cc12` [Compound 322], the IC50 fell in the range of 1000 to 2500 nM.
In turn, `CC(C)c1ccc(Cn2nc(C(=O)O)c3ccccc32)cc1` [Compound 323] showed an IC50 of 1000 to 2500 nM.
In turn, `O=C(O)c1nn(Cc2ccc(OC(F)F)cc2)c2ccccc12` [Compound 325] yielded an IC50 of over 2500 nM.
In turn, `O=C(O)c1nn(Cc2ccc(Cl)cc2)c2cc(F)ccc12` [Compound 326] displayed an IC50 of over 2500 nM.
Molecule `O=C(O)c1nn(Cc2ccc(Cl)cc2)c2cccc(F)c12` [Compound 327] registered an IC50 of over 2500 nM.
Regarding `O=C(O)c1nn(Cc2cccc(OC(F)(F)F)c2)c2ccccc12` [Compound 328], the IC50 was over 2500 nM.
`COc1cc(Cn2nc(C(=O)O)c3ccccc32)ccc1Cl` [Compound 329]: the IC50 is over 2500 nM.
`Cc1ccc(Cn2nc(C(=O)O)c3cc(Cl)ccc32)cc1` [Compound 330] had an IC50 of over 2500 nM.
Consider `O=C(O)c1nn(Cc2ccc(F)cc2)c2ccccc12` [Compound 331], for which the IC50 is over 2500 nM.
In the case of `O=C(O)c1nn(Cc2ccc(C3CCCCC3)cc2)c2ccccc12` [Compound 332], the IC50 is over 2500 nM.
Turning to `Cc1ccc(CNC(=O)c2nn(Cc3ccc(Cl)cc3)c3ccccc23)nn1` [Compound 334], the IC50 fell in the range of 501 to 1000 nM.
`COc1cccc(F)c1CNC(=O)c1nn(Cc2ccc(Cl)cc2)c2ccccc12` [Compound 335]: the IC50 was over 2500 nM.
Still for that read-out and setting: as for `O=C(NCCOc1cccnc1)c1nn(Cc2ccc(Cl)cc2)c2ccccc12` [Compound 336], the figure is 100 to 500 nM.
The molecule `O=C(NCCc1c[nH]c2ccc(O)cc12)c1nn(Cc2ccc(Cl)cc2)c2ccccc12` [Compound 338] gave an IC50 of 100 to 500 nM.
`O=C(NCCc1cccc(Cl)c1)c1nn(Cc2ccc(Cl)cc2)c2ccccc12` [Compound 339] showed an IC50 of 501 to 1000 nM.
Molecule `Cc1[nH]c2ccccc2c1CCNC(=O)c1nn(Cc2ccc(Cl)cc2)c2ccccc12` [Compound 340] had an IC50 of over 2500 nM.
Turning to `Cc1cccc2c(CCNC(=O)c3nn(Cc4ccc(Cl)cc4)c4ccccc34)c[nH]c12` [Compound 341], the IC50 was over 2500 nM.
Consider `O=C(NCCc1ccc2c(c1)OCO2)c1nn(Cc2ccc(Cl)cc2)c2ccccc12` [Compound 342], for which the IC50 was 501 to 1000 nM.
The same measure, in the same setting: as for `COc1ccc(CCNC(=O)c2nn(Cc3ccc(Cl)cc3)c3ccccc23)cc1OC` [Compound 343], the figure is 501 to 1000 nM; as for `O=C(NCCc1ccc(Cl)c(Cl)c1)c1cn(Cc2ccc(Cl)cc2)c2ccccc12` [Compound 344], over 2500 nM; as for `O=C(NCCCn1ccnc1)c1nn(Cc2ccc(Cl)cc2)c2ccccc12` [Compound 345], over 2500 nM.
On the same count and under the same terms, next, `N=C(N)NCCCCNC(=O)c1nn(Cc2ccc(Cl)cc2)c2ccccc12` [Compound 346]: 1000 to 2500 nM; `O=C(CNC(=O)c1nn(Cc2ccc(Cl)cc2)c2ccccc12)NCC(F)(F)F` [Compound 347]: over 2500 nM.
Take `O=C(NCCc1cnccn1)c1nn(Cc2ccc(Cl)cc2)c2ccccc12` [Compound 348]: the IC50 lay within 1000 to 2500 nM.
Still for that read-out and setting: as for `O=C(NCCn1cccc1)c1nn(Cc2ccc(Cl)cc2)c2ccccc12` [Compound 349], the figure is 501 to 1000 nM; as for `O=C(NCCc1cccs1)c1nn(Cc2ccc(Cl)cc2)c2ccccc12` [Compound 350], 1000 to 2500 nM.
In turn, `O=C(NCCN1CCOCC1)c1nn(Cc2ccc(Cl)cc2)c2ccccc12` [Compound 351] returned an IC50 of over 2500 nM.
Turning to `O=C(NCc1nc2ccccc2[nH]1)c1nn(Cc2ccc(Cl)cc2)c2ccccc12` [Compound 352], the IC50 was 100 to 500 nM.
Consider `Cn1cc(CNC(=O)c2nn(Cc3ccc(Cl)cc3)c3ccccc23)cn1` [Compound 353], for which the IC50 is over 2500 nM.
The same measure, in the same setting: next, `Cn1ccc(CNC(=O)c2nn(Cc3ccc(Cl)cc3)c3ccccc23)n1` [Compound 354]: over 2500 nM; `O=C(NCCCc1ccncc1)c1nn(Cc2ccc(Cl)cc2)c2ccccc12` [Compound 355]: over 2500 nM.
For the molecule `O=C(NCCc1coc2ccccc12)c1nn(Cc2ccc(Cl)cc2)c2ccccc12` [Compound 356], the IC50 was 501 to 1000 nM.
Regarding `O=C(NCCc1nc2ccccc2[nH]1)c1nn(Cc2ccc(Cl)cc2)c2ccccc12` [Compound 357], the IC50 is under 100 nM.
Take `O=C(NCc1ccc(-n2cccn2)cc1)c1nn(Cc2ccc(Cl)cc2)c2ccccc12` [Compound 359]: the IC50 was over 2500 nM.
In turn, `O=C(NCc1cccc(F)c1F)c1nn(Cc2ccc(Cl)cc2)c2ccccc12` [Compound 360] came in with an IC50 of over 2500 nM.
The molecule `O=C(NCCn1nnc2ccccc21)c1nn(Cc2ccc(Cl)cc2)c2ccccc12` [Compound 361] had an IC50 of under 100 nM.
On the same count and under the same terms, as for `Cc1cccc(CCNC(=O)c2nn(Cc3ccc(Cl)cc3)c3ccccc23)c1` [Compound 362], the figure is 1000 to 2500 nM; as for `Cc1ccccc1CCNC(=O)c1nn(Cc2ccc(Cl)cc2)c2ccccc12` [Compound 363], over 2500 nM; as for `COc1ccc(CCNC(=O)c2nn(Cc3ccc(Cl)cc3)c3ccccc23)cn1` [Compound 364], 100 to 500 nM.
Molecule `CCOc1ccc(CCNC(=O)c2nn(Cc3ccc(Cl)cc3)c3ccccc23)cc1` [Compound 365] came in with an IC50 of over 2500 nM.
`COc1cc(CCNC(=O)c2nn(Cc3ccc(Cl)cc3)c3ccccc23)ccc1O` [Compound 366]: the IC50 is under 100 nM.
On the same count and under the same terms, next, `Cc1ncsc1CCNC(=O)c1nn(Cc2ccc(Cl)cc2)c2ccccc12` [Compound 367]: 100 to 500 nM; `O=C(NCc1cn2cccnc2n1)c1nn(Cc2ccc(Cl)cc2)c2ccccc12` [Compound 368]: 100 to 500 nM; `O=C(NCc1ccc(-n2cccn2)nc1)c1nn(Cc2ccc(Cl)cc2)c2ccccc12` [Compound 369]: over 2500 nM.

The same test, now with this note: versus 20 μM deoxycholic acid agonist; HEK cells expressing human MRGPR X4; read-out: MRGPRX4 Antagonist Activity.
On to `O=C(NS(=O)(=O)c1ccc(OC(F)(F)F)cc1)c1nn(Cc2ccc(OC(F)F)cc2)c2ccccc12` [Compound 296], for which the IC50 was over 2500 nM.
Turning to `Cc1ccc(Cn2nc(C(=O)NS(=O)(=O)c3cccc(C)c3)c3ccccc32)cc1` [Compound 297], the IC50 was over 2500 nM.
For `O=C(NS(=O)(=O)Cc1ccccn1)c1nn(Cc2ccc(Cl)cc2)c2ccccc12` [Compound 299], the IC50 is over 2500 nM.
Turning to `COc1cccc(CS(=O)(=O)NC(=O)c2nn(Cc3ccc(Cl)cc3)c3ccccc23)c1` [Compound 300], the IC50 was over 2500 nM.
Turning to `N#Cc1ccc(S(=O)(=O)NC(=O)c2nn(Cc3cccc(F)c3)c3ccccc23)cc1Cl` [Compound 301], the IC50 was over 2500 nM.
On to `CC(C)c1ccccc1S(=O)(=O)NC(=O)c1nn(Cc2ccc(Cl)cc2)c2ccccc12` [Compound 302], for which the IC50 was over 2500 nM.
The same measure, in the same setting: as for `Cc1cc(S(=O)(=O)NC(=O)c2nn(Cc3ccc(OC(F)F)cc3)c3ccccc23)ccc1Cl` [Compound 303], the figure is over 2500 nM; as for `O=C(NS(=O)(=O)c1cccnc1)c1nn(Cc2ccc(Cl)cc2)c2ccccc12` [Compound 304], over 2500 nM.
Take `Cc1cccc(S(=O)(=O)NC(=O)c2nn(Cc3ccc(Cl)cc3)c3ccccc23)n1` [Compound 305]: the IC50 was over 2500 nM.
With `Cc1cccc(S(=O)(=O)NC(=O)c2nn(Cc3ccc(C(F)(F)F)cc3Cl)c3ccccc23)c1` [Compound 306], the IC50 was over 2500 nM.
As for `Cc1c(Cl)cccc1S(=O)(=O)NC(=O)c1nn(Cc2cccc(F)c2)c2ccccc12` [Compound 307], the IC50 is over 2500 nM.
Turning to `O=C(NS(=O)(=O)c1ccc(Cl)cc1Cl)c1nn(Cc2ccc(Cl)cc2)c2ccccc12` [Compound 308], the IC50 was over 2500 nM.
Consider `Cc1ccc(S(=O)(=O)NC(=O)c2nn(Cc3ccc(OC(F)F)cc3)c3ccccc23)cc1` [Compound 309, 1-(4-(difluoromethoxy)benzyl)-N-tosyl-1H-indazole-3-carboxamide], for which the IC50 is 1000 to 2500 nM.
Take `O=C(NS(=O)(=O)Cc1cccnc1)c1nn(Cc2ccc(Cl)cc2)c2ccccc12` [Compound 310]: the IC50 was over 2500 nM.
For the molecule `O=C(O)c1ccc(S(=O)(=O)NC(=O)c2nn(Cc3ccc(OC(F)F)cc3)c3ccccc23)cc1` [Compound 311, 4-(N-(1-(4-(difluoromethoxy)benzyl)-1H-indazole-3-carbonyl)sulfamoyl)benzoic acid], the IC50 fell in the range of 1000 to 2500 nM.
Regarding `Cc1ccccc1S(=O)(=O)NC(=O)c1cn(Cc2ccc(OC(F)F)cc2)c2ccccc12` [Compound 312, 1-(4-(difluoromethoxy)benzyl)-N-(o-tolylsulfonyl)-1H-indole-3-carboxamide], the IC50 fell in the range of 1000 to 2500 nM.
Still for that read-out and setting: next, `Cc1cccc(S(=O)(=O)NC(=O)c2cn(Cc3ccc(OC(F)F)cc3)c3ccccc23)c1` [Compound 313]: over 2500 nM; `O=S(=O)(NCCc1ccc(Cl)c(F)c1)c1cn(Cc2ccc(Cl)cc2)c2ccccc12` [Compound 314]: 1000 to 2500 nM; `O=C(CSc1cn(Cc2ccc(Br)cc2)c2ccccc12)N1CCCC1` [Compound 315, 2-(4(1H-indol-3-yl)thio)-1-(pyrrolidin-1-yl)ethan-1-one]: 1000 to 2500 nM.
Turning to `O=C(O)c1nn(Cc2ccc(Cl)cc2Cl)c2ccccc12` [Compound 316, 1-(2,4-dichlorobenzyl)-1H-indazole-3-carboxylic acid], the IC50 is 1000 to 2500 nM.
Still for that read-out and setting: as for `Cc1cc(Cl)ccc1Cn1nc(C(=O)O)c2ccccc21` [Compound 324], the figure is over 2500 nM.
Still for that read-out and setting: as for `O=C(NCCOCc1ccccc1)c1nn(Cc2ccc(Cl)cc2)c2ccccc12` [Compound 337], the figure is over 2500 nM.
